Measurements published in patent publication US20090239916A1, “NOVEL DRUG DISCOVERY TARGET AND MEDICINE ACTING ON THE SAME” (Reverse Proteomics Research Institute Co., Ltd, priority 2004, published 2009).
Counter-ions that a name gives are not always drawn.

How the values were obtained:
MFP-2 = biological target: T1, MFP-2 (Rattus norvegicus, UniProt P97852); assay: Binding experiments: compound-immobilized resins with rat brain lysate, SDS-PAGE and MALDI-TOF identification; conditions: first vs second binding experiment with fresh resin, SDS gel
T1 construct: The supernatant thus obtained was used as the lysate; from tissue; host or cells: rat brain
T1 sequence (P97852 1-735): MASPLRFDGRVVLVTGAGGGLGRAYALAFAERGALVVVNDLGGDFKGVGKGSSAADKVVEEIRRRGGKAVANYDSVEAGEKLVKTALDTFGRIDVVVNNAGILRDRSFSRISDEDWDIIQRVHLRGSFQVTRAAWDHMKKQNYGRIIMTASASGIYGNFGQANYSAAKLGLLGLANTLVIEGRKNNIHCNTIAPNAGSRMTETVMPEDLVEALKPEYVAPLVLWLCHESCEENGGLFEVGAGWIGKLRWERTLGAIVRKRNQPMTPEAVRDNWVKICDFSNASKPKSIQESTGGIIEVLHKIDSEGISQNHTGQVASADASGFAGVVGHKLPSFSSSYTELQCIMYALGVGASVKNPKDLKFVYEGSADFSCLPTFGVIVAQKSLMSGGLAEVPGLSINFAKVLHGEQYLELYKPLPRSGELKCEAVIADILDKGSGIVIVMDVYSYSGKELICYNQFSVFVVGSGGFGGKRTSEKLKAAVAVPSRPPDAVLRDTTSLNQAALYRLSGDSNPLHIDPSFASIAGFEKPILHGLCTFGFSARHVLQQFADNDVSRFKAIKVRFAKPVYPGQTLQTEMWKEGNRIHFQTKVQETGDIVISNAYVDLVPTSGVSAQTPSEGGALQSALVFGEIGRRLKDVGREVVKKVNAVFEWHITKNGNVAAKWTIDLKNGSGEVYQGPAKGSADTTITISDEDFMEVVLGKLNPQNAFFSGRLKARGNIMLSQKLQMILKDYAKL
Protocol: The rat brain (2.4 g) was mixed in a mixed solution A (25 mM Tris-HCl pH 8.0, 0.5% Tween 20, 300 μM DCC (24 ml; N,N-diethyldithiocarbamate sodium)) and prepared as a homogenate, which was then centrifuged at 9,000 rpm for 10 minutes. The centrifugal supernatant was collected and further centrifuged at 50,000 rpm for 30 minutes. The supernatant thus obtained was used as the lysate. Note that all experiments were performed at 4° C. or on ice.
Binding experiments were performed using the immobilizing resins with each test compound immobilized thereon, prepared in Examples 1 to 2, and the rat brain lysate prepared in Example 3(1), per the procedures shown below.
Each resin (10 μl) and lysate (1 ml) were gently shaken at 4° C. for about 1 hour. Thereafter, centrifugal operation was performed, and each supernatant was collected carefully. Then, each supernatant was again mixed with a fresh compound-bound resin (10 μl). At this time, the separated compound-bound resin was gently stored at 4° C. as the resin of the first binding experiment. After the mixture was gently stirred for about 1 hour, centrifugal operation was performed, and the supernatant was removed. […] The sample solution thus obtained was separated using a commercially available SDS gel (BioRad readyGel J, 10% SDS, cat. NO=161-J341), and the SDS gel was analyzed (FIG. 2). […]

recombinant MFP-2 = biological target: T2, recombinant MFP-2 (Homo sapiens, UniProt P51659); assay: Measurement of Kd value between MFP-2 and Intal using Biacore; assay type: binding; conditions: Biacore 3000; Intal-immobilized gold chip; MFP-2 25, 12.5 and 6.25 nM; global fitting
T2 construct: His-tag (N); made in house; host or cells: E. coli (pDEST17, GATEWAY system)
T2 sequence (P51659 1-736): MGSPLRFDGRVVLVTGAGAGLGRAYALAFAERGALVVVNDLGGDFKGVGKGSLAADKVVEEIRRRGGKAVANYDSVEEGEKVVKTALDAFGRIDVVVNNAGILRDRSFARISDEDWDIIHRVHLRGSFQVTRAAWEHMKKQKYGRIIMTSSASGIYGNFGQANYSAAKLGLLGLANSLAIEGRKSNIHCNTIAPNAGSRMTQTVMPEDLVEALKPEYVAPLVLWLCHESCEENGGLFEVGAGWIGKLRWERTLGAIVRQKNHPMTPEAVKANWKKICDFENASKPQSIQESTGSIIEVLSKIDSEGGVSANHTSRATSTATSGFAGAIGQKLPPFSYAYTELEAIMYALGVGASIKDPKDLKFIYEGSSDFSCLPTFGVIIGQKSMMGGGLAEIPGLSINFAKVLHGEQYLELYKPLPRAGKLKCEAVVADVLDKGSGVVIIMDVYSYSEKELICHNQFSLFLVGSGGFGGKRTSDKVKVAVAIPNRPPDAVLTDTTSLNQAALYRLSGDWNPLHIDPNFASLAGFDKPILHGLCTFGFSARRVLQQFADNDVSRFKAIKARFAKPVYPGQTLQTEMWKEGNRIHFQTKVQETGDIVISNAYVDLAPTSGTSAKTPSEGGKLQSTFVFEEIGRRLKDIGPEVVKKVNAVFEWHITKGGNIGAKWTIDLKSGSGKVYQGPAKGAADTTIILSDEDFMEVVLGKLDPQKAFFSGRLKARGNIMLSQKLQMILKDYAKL
Protocol: The SIA kit Au from Biacore Company (#BR-1004-05) was immersed in Piranha solution (25% H2O2, 75% H2SO4) in a glass dish, and washed with shaking for 3 hours. Next, this chip was washed with Milli-Q Water and ethanol, and allowed to stand overnight as immersed in an ethanol solution (1.5 mM) of 11-amino-1-undecanethiol hydrochloride (Dojindo, #A423). After this was washed with N-methylpyrrolidone (NMP), it was placed in an NMP solution containing N-Fmoc-amido-dPEG4™-acid (50 mM), PyBop (50 mM) and diisopropylethylamine (Pr2Net; 100 mM) and shaken for 16 hours to cause the reaction. After the mixture was washed with NMP, the reaction was allowed to proceed in an acetonitrile (MeCN) solution containing acetic acid (10 mM), HOBt (10 mM) and WSCI (water-soluble carbodiimide; 10 mM) for 5.5 hours. […]
An entry vector was prepared using the GATEWAY system from Invitrogen Company, and recombinant MFP-2 was expressed as a protein with N-terminal His-tag using an E. coli expression system (pDEST17). […]
The Kd value was measured using Biacore 3000. […]
After data were measured, differences from the control were determined using analytical software (BIACORE Company, BIA evaluation ver 4.1) and analyzed by global fitting to calculate the Kd value. As a result, the value was determined to be 0.64 nM.

SMILES	binding of MFP-2 to the compound-immobilized resin (MFP-2)	Kd (recombinant MFP-2) [nM]
O=C(O)c1cc(=O)c2c(OCC(O)COc3cccc4oc(C(=O)O)cc(=O)c34)cccc2o1 [Intal, disodium salt of 1,3-bis(2-carboxychromon-5-yloxy)-2-hydroxypropane]	specific binding	0.64
O=C(Cn1c(=O)sc2ccc(Cl)cc21)N1CCN(CCO)CC1 [tiaramide]	specific binding	–
